Data as given in patent US12365696B2, “Small-molecule focal adhesion kinase (FAK) inhibitors” (DANA-FARBER CANCER INSTITUTE, INC., priority 2019, dated 2025).

What was measured:
Assay in all cases: KINOMEscan
Format in all cases: binding
BMPR1B = BMPR1B (Homo sapiens (Human), UniProt O00238); conditions: 10000 nM, read-out: Percent Control
NEK7 = NEK7 (Homo sapiens (Human), UniProt Q8TDX7); conditions: NEK7, 10000 nM; read-out: Percent Control
ASK1 = ASK1 (Homo sapiens (Human), UniProt Q99683); conditions: ASK1, 10000 nM; read-out: Percent Control
GRK2 = GRK2 (Homo sapiens (Human), UniProt P25098); conditions: GRK2, 10000 nM; read-out: Percent Control
FLT3(D835V) = FLT3(D835V) (Homo sapiens (Human), UniProt P36888, D835V); conditions: 10000 nM, read-out: Percent Control
[1] = molecular target: RPS6KA5(Kin.Dom.1-N-terminal) (Homo sapiens (Human), UniProt O75582); conditions: 10000 nM, read-out: Percent Control
NEK3 = NEK3 (Homo sapiens (Human), UniProt P51956); conditions: NEK3, 10000 nM; read-out: Percent Control
Sequence of NEK3 (P51956 whole entry): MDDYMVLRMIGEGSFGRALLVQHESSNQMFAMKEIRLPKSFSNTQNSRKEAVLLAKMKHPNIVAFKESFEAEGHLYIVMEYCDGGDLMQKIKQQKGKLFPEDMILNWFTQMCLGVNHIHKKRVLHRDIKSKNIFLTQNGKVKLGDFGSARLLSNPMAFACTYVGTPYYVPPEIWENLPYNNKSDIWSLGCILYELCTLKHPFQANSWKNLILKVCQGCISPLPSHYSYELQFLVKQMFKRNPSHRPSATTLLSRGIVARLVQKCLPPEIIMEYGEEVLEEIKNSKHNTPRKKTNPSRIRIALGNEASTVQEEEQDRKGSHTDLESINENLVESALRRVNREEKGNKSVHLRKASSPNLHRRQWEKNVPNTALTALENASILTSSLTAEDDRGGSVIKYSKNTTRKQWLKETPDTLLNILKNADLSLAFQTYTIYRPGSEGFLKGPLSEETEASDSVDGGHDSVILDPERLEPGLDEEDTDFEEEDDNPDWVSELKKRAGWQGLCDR

NEK9 = NEK9 (Homo sapiens (Human), UniProt Q8TD19); conditions: NEK9, 10000 nM; read-out: Percent Control
PKN2 = PKN2 (Homo sapiens (Human), UniProt Q16513); conditions: PKN2, 10000 nM; read-out: Percent Control
Sequence of PKN2 (Q16513 whole entry): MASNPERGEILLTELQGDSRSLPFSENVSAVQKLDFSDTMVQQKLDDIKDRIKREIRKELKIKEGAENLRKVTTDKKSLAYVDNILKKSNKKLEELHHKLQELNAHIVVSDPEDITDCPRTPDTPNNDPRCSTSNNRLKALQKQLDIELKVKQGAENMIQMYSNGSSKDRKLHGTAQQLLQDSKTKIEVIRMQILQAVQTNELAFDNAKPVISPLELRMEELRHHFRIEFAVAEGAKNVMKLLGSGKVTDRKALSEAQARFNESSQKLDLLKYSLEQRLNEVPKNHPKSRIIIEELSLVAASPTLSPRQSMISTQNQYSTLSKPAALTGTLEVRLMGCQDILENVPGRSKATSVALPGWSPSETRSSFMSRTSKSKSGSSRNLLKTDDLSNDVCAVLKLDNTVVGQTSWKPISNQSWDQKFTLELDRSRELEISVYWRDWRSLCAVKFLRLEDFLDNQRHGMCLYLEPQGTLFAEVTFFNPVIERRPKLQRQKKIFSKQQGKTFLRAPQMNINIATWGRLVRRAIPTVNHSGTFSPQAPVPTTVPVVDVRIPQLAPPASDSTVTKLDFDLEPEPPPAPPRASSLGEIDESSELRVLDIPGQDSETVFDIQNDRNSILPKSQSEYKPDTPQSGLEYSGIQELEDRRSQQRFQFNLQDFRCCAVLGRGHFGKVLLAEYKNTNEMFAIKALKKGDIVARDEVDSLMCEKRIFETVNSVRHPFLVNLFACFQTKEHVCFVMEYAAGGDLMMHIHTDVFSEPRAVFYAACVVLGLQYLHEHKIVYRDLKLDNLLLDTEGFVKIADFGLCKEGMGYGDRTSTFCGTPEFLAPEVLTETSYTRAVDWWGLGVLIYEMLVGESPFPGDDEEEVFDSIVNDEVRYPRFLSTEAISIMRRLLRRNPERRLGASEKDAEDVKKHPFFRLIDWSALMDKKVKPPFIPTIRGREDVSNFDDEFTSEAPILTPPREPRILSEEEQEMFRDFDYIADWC

MRCKB = MRCKB (Homo sapiens (Human), UniProt Q9Y5S2); conditions: 10000 nM, read-out: Percent Control
CAMKK2 = CAMKK2 (Homo sapiens (Human), UniProt Q96RR4); conditions: CAMKK2, 10000 nM; read-out: Percent Control
EPHA2 = EPHA2 (Homo sapiens (Human), UniProt P29317); conditions: EPHA2, 10000 nM; read-out: Percent Control
GSK3B = GSK3B (Homo sapiens (Human), UniProt P49841); conditions: 10000 nM, read-out: Percent Control
Sequence of GSK3B (P49841 whole entry): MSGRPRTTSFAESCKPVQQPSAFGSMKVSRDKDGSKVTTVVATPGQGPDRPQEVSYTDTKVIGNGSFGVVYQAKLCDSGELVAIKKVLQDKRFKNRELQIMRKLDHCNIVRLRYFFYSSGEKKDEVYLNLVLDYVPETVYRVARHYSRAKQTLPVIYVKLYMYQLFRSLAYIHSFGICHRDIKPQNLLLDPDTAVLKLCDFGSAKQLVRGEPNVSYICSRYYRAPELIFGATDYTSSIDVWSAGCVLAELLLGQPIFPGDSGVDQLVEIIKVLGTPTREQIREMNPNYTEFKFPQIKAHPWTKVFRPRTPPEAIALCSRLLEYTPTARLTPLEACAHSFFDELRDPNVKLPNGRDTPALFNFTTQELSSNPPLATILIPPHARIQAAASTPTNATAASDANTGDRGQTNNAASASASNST

TNK1 = TNK1 (Homo sapiens (Human), UniProt Q13470); conditions: TNK1, 10000 nM; read-out: Percent Control
MEK5 = MEK5 (Homo sapiens (Human), UniProt Q13163); conditions: MEK5, 10000 nM; read-out: Percent Control
PRKCH = PRKCH (Homo sapiens (Human), UniProt P24723); conditions: 10000 nM, read-out: Percent Control
RET = RET (Homo sapiens (Human), UniProt P07949); conditions: 10000 nM, read-out: Percent Control
EGFR = EGFR (Homo sapiens (Human), UniProt P00533); conditions: 10000 nM, read-out: Percent Control
CDKL1 = CDKL1 (Homo sapiens (Human), UniProt Q00532); conditions: CDKL1, 10000 nM; read-out: Percent Control
Sequence of CDKL1 (Q00532 whole entry): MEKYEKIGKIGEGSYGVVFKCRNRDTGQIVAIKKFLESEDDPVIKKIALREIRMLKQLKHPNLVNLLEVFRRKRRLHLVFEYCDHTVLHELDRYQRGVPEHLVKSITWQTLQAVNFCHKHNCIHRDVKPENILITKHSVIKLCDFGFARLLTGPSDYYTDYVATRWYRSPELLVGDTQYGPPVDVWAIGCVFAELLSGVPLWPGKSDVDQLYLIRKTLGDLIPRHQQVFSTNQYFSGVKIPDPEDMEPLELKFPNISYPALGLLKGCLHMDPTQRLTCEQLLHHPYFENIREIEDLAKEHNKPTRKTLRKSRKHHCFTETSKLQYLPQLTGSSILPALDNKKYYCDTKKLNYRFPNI

MAP4K5 = MAP4K5 (Homo sapiens (Human), UniProt Q9Y4K4); conditions: MAP4K5, 10000 nM; read-out: Percent Control
BRSK2 = BRSK2 (Homo sapiens (Human), UniProt Q8IWQ3); conditions: BRSK2, 10000 nM; read-out: Percent Control
MYLK = MYLK (Homo sapiens (Human), UniProt Q15746); conditions: 10000 nM, read-out: Percent Control
MEK3 = MEK3 (Homo sapiens (Human), UniProt P46734); conditions: MEK3, 10000 nM; read-out: Percent Control
Sequence of MEK3 (P46734 whole entry): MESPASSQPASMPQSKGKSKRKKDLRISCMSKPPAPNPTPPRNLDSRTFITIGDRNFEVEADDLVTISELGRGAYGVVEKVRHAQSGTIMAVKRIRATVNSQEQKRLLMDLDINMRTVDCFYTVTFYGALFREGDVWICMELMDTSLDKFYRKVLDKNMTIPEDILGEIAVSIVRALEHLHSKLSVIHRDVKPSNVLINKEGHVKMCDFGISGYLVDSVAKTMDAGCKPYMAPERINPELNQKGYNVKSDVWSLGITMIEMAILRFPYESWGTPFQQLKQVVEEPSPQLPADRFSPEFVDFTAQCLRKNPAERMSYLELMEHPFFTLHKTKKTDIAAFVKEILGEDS

KIT(D816H) = KIT(D816H) (Homo sapiens (Human), UniProt P10721, D816H); conditions: 10000 nM, read-out: Percent Control
YANK1 = YANK1 (Homo sapiens (Human), UniProt Q8WU08); conditions: YANK1, 10000 nM; read-out: Percent Control
Sequence of YANK1 (Q8WU08 whole entry): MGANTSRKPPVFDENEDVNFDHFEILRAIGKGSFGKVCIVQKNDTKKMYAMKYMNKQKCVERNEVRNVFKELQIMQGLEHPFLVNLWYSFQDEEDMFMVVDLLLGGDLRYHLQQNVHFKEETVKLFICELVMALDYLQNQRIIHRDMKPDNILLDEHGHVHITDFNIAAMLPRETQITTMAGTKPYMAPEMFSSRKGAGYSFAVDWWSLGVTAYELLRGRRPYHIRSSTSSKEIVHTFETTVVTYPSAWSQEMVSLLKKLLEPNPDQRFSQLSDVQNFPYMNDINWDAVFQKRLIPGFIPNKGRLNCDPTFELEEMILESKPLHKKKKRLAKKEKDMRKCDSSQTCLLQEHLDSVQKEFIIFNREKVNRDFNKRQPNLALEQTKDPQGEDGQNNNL

FLT3(ITD, D835V) = conditions: 10000 nM
TESK1 = TESK1 (Homo sapiens (Human), UniProt Q15569); conditions: TESK1, 10000 nM; read-out: Percent Control
Sequence of TESK1 (Q15569 whole entry): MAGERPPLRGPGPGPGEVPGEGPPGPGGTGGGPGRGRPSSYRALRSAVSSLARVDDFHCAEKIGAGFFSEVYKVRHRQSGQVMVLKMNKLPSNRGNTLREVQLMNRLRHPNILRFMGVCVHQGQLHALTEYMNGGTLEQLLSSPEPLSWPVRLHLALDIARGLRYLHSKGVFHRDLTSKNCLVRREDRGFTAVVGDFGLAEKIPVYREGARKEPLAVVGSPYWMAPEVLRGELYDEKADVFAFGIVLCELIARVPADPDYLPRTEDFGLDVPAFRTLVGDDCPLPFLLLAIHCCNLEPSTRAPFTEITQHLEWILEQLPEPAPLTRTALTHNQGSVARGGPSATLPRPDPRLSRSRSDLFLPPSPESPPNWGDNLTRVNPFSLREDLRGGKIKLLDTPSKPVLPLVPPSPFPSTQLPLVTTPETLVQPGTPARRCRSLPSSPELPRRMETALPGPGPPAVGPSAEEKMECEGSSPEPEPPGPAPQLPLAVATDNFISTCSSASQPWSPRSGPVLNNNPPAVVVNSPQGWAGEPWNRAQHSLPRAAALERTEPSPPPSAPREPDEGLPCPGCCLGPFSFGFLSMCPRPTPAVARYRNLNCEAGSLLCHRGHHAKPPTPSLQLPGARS

ULK3 = ULK3 (Homo sapiens (Human), UniProt Q6PHR2); conditions: ULK3, 10000 nM; read-out: Percent Control
Sequence of ULK3 (Q6PHR2 whole entry): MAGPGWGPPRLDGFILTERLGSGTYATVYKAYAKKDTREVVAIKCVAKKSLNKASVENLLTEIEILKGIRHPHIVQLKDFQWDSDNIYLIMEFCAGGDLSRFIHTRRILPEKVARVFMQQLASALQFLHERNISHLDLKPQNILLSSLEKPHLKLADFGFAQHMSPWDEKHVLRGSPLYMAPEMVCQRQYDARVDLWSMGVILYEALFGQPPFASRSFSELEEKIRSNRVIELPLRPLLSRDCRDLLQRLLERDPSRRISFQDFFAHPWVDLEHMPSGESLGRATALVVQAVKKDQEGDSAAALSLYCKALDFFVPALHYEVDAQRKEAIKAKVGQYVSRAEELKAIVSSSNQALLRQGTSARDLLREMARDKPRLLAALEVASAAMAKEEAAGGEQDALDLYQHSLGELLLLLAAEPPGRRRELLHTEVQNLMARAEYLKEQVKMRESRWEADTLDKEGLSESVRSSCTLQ

[2] = molecular target: RSK2(Kin.Dom.2-C-terminal) (Homo sapiens (Human), UniProt P51812); conditions: 10000 nM, read-out: Percent Control
Sequence of RSK2(Kin.Dom.2-C-terminal) (P51812 422-679): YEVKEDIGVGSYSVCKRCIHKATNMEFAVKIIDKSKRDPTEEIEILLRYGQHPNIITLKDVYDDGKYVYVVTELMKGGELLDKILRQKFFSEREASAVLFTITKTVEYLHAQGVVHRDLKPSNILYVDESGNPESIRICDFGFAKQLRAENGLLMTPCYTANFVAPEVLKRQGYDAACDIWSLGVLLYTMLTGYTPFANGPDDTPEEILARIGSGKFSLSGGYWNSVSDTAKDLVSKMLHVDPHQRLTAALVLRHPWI

SRMS = SRMS (Homo sapiens (Human), UniProt Q9H3Y6); conditions: 10000 nM, read-out: Percent Control
[3] = molecular target: ABL1(E255K)-phosphorylated (Homo sapiens (Human), UniProt P00519, E255K); conditions: 10000 nM, read-out: Percent Control
[4] = molecular target: RPS6KA5(Kin.Dom.2-C-terminal) (Homo sapiens (Human), UniProt O75582); conditions: 10000 nM, read-out: Percent Control
CHEK2 = CHEK2 (Homo sapiens (Human), UniProt O96017); conditions: CHEK2, 10000 nM; read-out: Percent Control
Sequence of CHEK2 (O96017 whole entry): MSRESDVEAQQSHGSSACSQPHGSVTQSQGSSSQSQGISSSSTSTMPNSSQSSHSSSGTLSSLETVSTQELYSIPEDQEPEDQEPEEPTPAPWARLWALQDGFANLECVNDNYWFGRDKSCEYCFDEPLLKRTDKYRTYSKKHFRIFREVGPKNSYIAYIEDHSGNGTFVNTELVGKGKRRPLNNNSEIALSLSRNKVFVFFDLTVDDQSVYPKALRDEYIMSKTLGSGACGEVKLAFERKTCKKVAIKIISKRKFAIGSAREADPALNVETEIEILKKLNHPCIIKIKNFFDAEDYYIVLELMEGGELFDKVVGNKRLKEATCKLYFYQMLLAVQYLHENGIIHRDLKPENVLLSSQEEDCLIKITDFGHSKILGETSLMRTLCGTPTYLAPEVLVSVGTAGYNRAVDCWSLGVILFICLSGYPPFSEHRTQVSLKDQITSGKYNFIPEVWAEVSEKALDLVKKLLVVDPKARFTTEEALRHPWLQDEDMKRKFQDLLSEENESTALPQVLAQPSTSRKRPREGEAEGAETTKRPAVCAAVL

EPHA3 = EPHA3 (Homo sapiens (Human), UniProt P29320); conditions: EPHA3, 10000 nM; read-out: Percent Control

SMILES	remaining binding at 10 µM (BMPR1B)	remaining binding at 10 µM (NEK7)	remaining binding at 10 µM (ASK1)	remaining binding at 10 µM (GRK2)	remaining binding at 10 µM (FLT3(D835V))	remaining binding at 10 µM [1]	remaining binding at 10 µM (NEK3)	remaining binding at 10 µM (NEK9)	remaining binding at 10 µM (PKN2)	remaining binding at 10 µM (MRCKB)	remaining binding at 10 µM (CAMKK2)	remaining binding at 10 µM (EPHA2)	remaining binding at 10 µM (GSK3B)	remaining binding at 10 µM (TNK1)	remaining binding at 10 µM (MEK5)	remaining binding at 10 µM (PRKCH)	remaining binding at 10 µM (RET)	remaining binding at 10 µM (EGFR)	remaining binding at 10 µM (CDKL1)	remaining binding at 10 µM (MAP4K5)	other results
COc1cc(N2CCC(N3CCN(C)CC3)CC2)ccc1Nc1ncc2c(n1)N(C)c1sc(C)nc1C(=O)N2 [Compound 3, 6-((2-methoxy-4-(4-(4-methylpiperazin-1-yl)piperidin-1-yl)phenyl)amino)-2,4-dimethyl-4,9-dihydro-10H-pyrimido[5,4-b]thiazolo[5,4-e][1,4]diazepin-10-one]	88%	63%	74%	100%	57%	70%	88%	84%	100%	100%	80%	91%	95%	53%	22%	89%	99%	90%	72%	82%	remaining binding at 10 µM (BRSK2): 78%; remaining binding at 10 µM (MYLK): 53%; remaining binding at 10 µM (MEK3): 92%; remaining binding at 10 µM (KIT(D816H)): 22%; remaining binding at 10 µM (YANK1): 77%; Percent Control (FLT3(ITD, D835V)): 100%; remaining binding at 10 µM (TESK1): 81%; remaining binding at 10 µM (ULK3): 95%; remaining binding at 10 µM [2]: 100%; remaining binding at 10 µM (SRMS): 78%; remaining binding at 10 µM [3]: 17%; remaining binding at 10 µM [4]: 72%; remaining binding at 10 µM (CHEK2): 72%; remaining binding at 10 µM (EPHA3): 99%
COc1cc(N2CCC(N3CCN(C)CC3)CC2)ccc1Nc1ncc2c(n1)N(C)c1sc(C)nc1C(=O)N2C [Compound 5, 6-((2-methoxy-4-(4-(4-methylpiperazin-1-yl)piperidin-1-yl)phenyl)amino)-2,4,9-trimethyl-4,9-dihydro-10H-pyrimido[5,4-b]thiazolo[5,4-e][1,4]diazepin-10-one]	94%	100%	88%	100%	97%	91%	100%	100%	100%	100%	88%	91%	99%	10%	100%	94%	100%	100%	80%	91%	remaining binding at 10 µM (BRSK2): 91%; remaining binding at 10 µM (MYLK): 36%; remaining binding at 10 µM (MEK3): 100%; remaining binding at 10 µM (KIT(D816H)): 100%; remaining binding at 10 µM (YANK1): 100%; Percent Control (FLT3(ITD, D835V)): 100%; remaining binding at 10 µM (TESK1): 100%; remaining binding at 10 µM (ULK3): 97%; remaining binding at 10 µM [2]: 99%; remaining binding at 10 µM (SRMS): 97%; remaining binding at 10 µM [3]: 100%; remaining binding at 10 µM [4]: 63%; remaining binding at 10 µM (CHEK2): 100%; remaining binding at 10 µM (EPHA3): 100%
